Legend:
IMC-1 (IL-2 20 ng/mL) [1] = test: drug sensitivity score (DSS) (DSS units); higher = more sensitive; extreme values may be limits of the assay; conditions: 72 h
[2] = test system: normal primary NK cells, pool 3 (3 donors) (IL-2 2.5 ng/mL); test: as above; conditions: 72 h
YT (IL-2 2.5 ng/mL) [3] = test: as above; conditions: 72 h
NK-92 (IL-2 2.5 ng/mL) [4] = test: as above; conditions: 72 h
SNK-6 (IL-2 2.5 ng/mL) [5] = test: as above; conditions: 72 h
NK-YS (IL-2 2.5 ng/mL) [6] = test: as above; conditions: 72 h
NKL (IL-2 2.5 ng/mL) [7] = test: as above; conditions: 72 h
DERL-7 (IL-2 2.5 ng/mL) [8] = test: as above; conditions: 72 h
[9] = test system: normal primary NK cells, pool 1 (3 donors) (IL-2 2.5 ng/mL); test: as above; conditions: 72 h
KHYG-1 (IL-2 2.5 ng/mL) [10] = test: as above; conditions: 72 h
[11] = test system: normal primary NK cells, pool 1 (3 donors), resting (IL-2 0 ng/mL); test: as above; conditions: 72 h
KAI3 (IL-2 2.5 ng/mL) [12] = test: as above; conditions: 72 h
[13] = test system: normal primary NK cells, pool 2 (3 donors) (IL-2 2.5 ng/mL); test: as above; conditions: 72 h
[14] = test system: normal NK cells expanded with K562-aAPC; test: percent inhibition of viability; higher = more inhibition; conditions: 72 h, IL-2 2.5 ng/mL
Experimental: (§1)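 Drug sensitivity and resistance testing on K562-aAPC-expanded normal NK cells: 5 concentrations (10-fold steps over a 10,000-fold range), 72 h at 37 °C, viability by CellTiter-Glo normalised to DMSO and benzethonium chloride controls; DSS from the fitted curve.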

IMC-1 (IL-2 20 ng/mL) [15] = test: as above; conditions: 72 h
[16] = test system: normal primary NK cells, pool 3 (3 donors) (IL-2 2.5 ng/mL); test: as above; conditions: 72 h
YT (IL-2 2.5 ng/mL) [17] = test: as above; conditions: 72 h
NK-92 (IL-2 2.5 ng/mL) [18] = test: as above; conditions: 72 h
SNK-6 (IL-2 2.5 ng/mL) [19] = test: as above; conditions: 72 h
NK-YS (IL-2 2.5 ng/mL) [20] = test: as above; conditions: 72 h
NKL (IL-2 2.5 ng/mL) [21] = test: as above; conditions: 72 h
DERL-7 (IL-2 2.5 ng/mL) [22] = test: as above; conditions: 72 h
[23] = test system: normal primary NK cells, pool 1 (3 donors) (IL-2 2.5 ng/mL); test: as above; conditions: 72 h
KHYG-1 (IL-2 2.5 ng/mL) [24] = test: as above; conditions: 72 h
[25] = test system: normal primary NK cells, pool 1 (3 donors), resting (IL-2 0 ng/mL); test: as above; conditions: 72 h
KAI3 (IL-2 2.5 ng/mL) [26] = test: as above; conditions: 72 h
[27] = test system: normal primary NK cells, pool 2 (3 donors) (IL-2 2.5 ng/mL); test: as above; conditions: 72 h
[28] = test system: normal NK cells expanded with K562-aAPC; test: drug sensitivity score (DSS) (DSS units); higher = more sensitive; extreme values may be limits of the assay; conditions: 72 h; IL-2 2.5 ng/mL
Experimental: as §1

CC(=O)OC[C@H]1O[C@@H]([S-])[C@H](OC(C)=O)[C@@H](OC(C)=O)[C@@H]1OC(C)=O.CCP(CC)CC.[Au+] [Auranofin] (max concentration tested 2500 nM)
Conditions | drug sensitivity score
DERL-7 (IL-2 2.5 ng/mL) [8] | 10.6
IMC-1 (IL-2 20 ng/mL) [1] | 5.76
KAI3 (IL-2 2.5 ng/mL) [12] | 3.64
KHYG-1 (IL-2 2.5 ng/mL) [10] | 7.93
NK-92 (IL-2 2.5 ng/mL) [4] | 5.5
NK-YS (IL-2 2.5 ng/mL) [6] | 6.36
NKL (IL-2 2.5 ng/mL) [7] | 11.9
SNK-6 (IL-2 2.5 ng/mL) [5] | 8.77
YT (IL-2 2.5 ng/mL) [3] | 5.39
[2] | 17.4
[9] | 19.7
[11] | 23.7
[13] | 16.3
[28] | 10.2

percent inhibition of viability [%]
Conditions | 0.25 nM | 2.5 nM | 25 nM | 250 nM | 2500 nM
DERL-7 (IL-2 2.5 ng/mL) [22] | -0.63 | 7.06 | 8.16 | 44.6 | 98.2
IMC-1 (IL-2 20 ng/mL) [15] | -3.33 | -1.53 | 4.17 | 1.71 | 99.3
KAI3 (IL-2 2.5 ng/mL) [26] | -6.77 | -2.1 | -2.36 | -3.59 | 71.4
KHYG-1 (IL-2 2.5 ng/mL) [24] | 0.4 | -2.1 | 1.71 | 13.8 | 104
NK-92 (IL-2 2.5 ng/mL) [18] | -2.57 | -12.2 | -2.23 | -0.04 | 98.4
NK-YS (IL-2 2.5 ng/mL) [20] | -7.49 | -6.18 | -3.6 | 9.95 | 84.9
NKL (IL-2 2.5 ng/mL) [21] | -10.3 | -9.31 | -24.6 | 52.6 | 106
SNK-6 (IL-2 2.5 ng/mL) [19] | 13.5 | 17.1 | 4.84 | 33.2 | 86
YT (IL-2 2.5 ng/mL) [17] | -4.83 | -3.66 | 0.33 | -3.85 | 101
[14] | 1.15 | -1.41 | -0.3 | 33.5 | 100
[16] | -4.42 | 1.03 | 18.4 | 81.8 | 101
[23] | -6.81 | -8.13 | 21.6 | 92.8 | 100
[25] | 5.52 | -6.64 | 48.2 | 92.5 | 99.7
[27] | -13.4 | -6.97 | 8.16 | 82.7 | 101

CO[C@@H](C(=O)N1Cc2[nH]nc(NC(=O)c3ccc(N4CCN(C)CC4)cc3)c2C1)c1ccccc1 [Danusertib] (max concentration tested 10000 nM)
Conditions | drug sensitivity score
DERL-7 (IL-2 2.5 ng/mL) [8] | 14.3
IMC-1 (IL-2 20 ng/mL) [1] | 17.9
KAI3 (IL-2 2.5 ng/mL) [12] | 10
KHYG-1 (IL-2 2.5 ng/mL) [10] | 13.2
NK-92 (IL-2 2.5 ng/mL) [4] | 10.4
NK-YS (IL-2 2.5 ng/mL) [6] | 14.6
NKL (IL-2 2.5 ng/mL) [7] | 6.51
SNK-6 (IL-2 2.5 ng/mL) [5] | 12.2
YT (IL-2 2.5 ng/mL) [3] | 7.27
[2] | 1.46
[9] | 4.29
[11] | 0
[13] | 3.85
[28] | 8.98

percent inhibition of viability [%]
Conditions | 1 nM | 10 nM | 100 nM | 1000 nM | 10000 nM
DERL-7 (IL-2 2.5 ng/mL) [22] | 4.21 | 7.76 | 28.8 | 56.9 | 73.3
IMC-1 (IL-2 20 ng/mL) [15] | -7.01 | -4.49 | 6.37 | 93.6 | 99.5
KAI3 (IL-2 2.5 ng/mL) [26] | -6.41 | -1.03 | 23.9 | 37.9 | 69.3
KHYG-1 (IL-2 2.5 ng/mL) [24] | -6.8 | -6.2 | 5.51 | 66.7 | 86.5
NK-92 (IL-2 2.5 ng/mL) [18] | 4 | 8.37 | 15.1 | 45.9 | 64.6
NK-YS (IL-2 2.5 ng/mL) [20] | -2.39 | -4.33 | 9.93 | 70.3 | 61.7
NKL (IL-2 2.5 ng/mL) [21] | -10.8 | -14.4 | -11 | 20.2 | 64.9
SNK-6 (IL-2 2.5 ng/mL) [19] | -10.1 | -21.1 | -2.34 | 66.7 | 72.5
YT (IL-2 2.5 ng/mL) [17] | -0.26 | -0.92 | 21.1 | 27.8 | 44.9
[14] | 0.09 | -2.41 | -1.99 | 45 | 66.8
[16] | -3.44 | 7.87 | 4.81 | 5.78 | 23.5
[23] | -7.78 | 14.4 | 8.28 | 17.6 | 41.4
[25] | 2.29 | 22.1 | 18.6 | 2.51 | -6.72
[27] | -7.19 | 11.2 | 11.8 | 13.2 | 39.9

From the supplement of paper PMC5908809
